Assay results taken from paper PMC8910447 (International Journal of Molecular Sciences, 2022).
pIC50, pKd: −log10 of the molar value. Like-named read-outs stand apart in the source and are kept apart here.

Experiments:
in vitro = conditions: human
[1] = test system: pCMV C-His (negative control); assay type: binding
EBOV-GP = EBOV-GP (Zaire ebolavirus, UniProt Q05320); experiment: biochemical; assay type: binding, Ebola virus
EBOVpp = experiment: microbe, parasite or virus in culture; assay type: cell-based, Zaire ebolavirus; conditions: for IC50: A549, read-out: IC50 (M) against infection with EBOVpp; for pIC50: A549, n = 3, read-out: EBOVpp IC50
[2] = test system: infectious recombinant EBOV; conditions: read-out: IC50 against infectious recombinant EBOV infection; cited from earlier work

Chain of EBOV-GP (Q05320 33-676 limits assumed): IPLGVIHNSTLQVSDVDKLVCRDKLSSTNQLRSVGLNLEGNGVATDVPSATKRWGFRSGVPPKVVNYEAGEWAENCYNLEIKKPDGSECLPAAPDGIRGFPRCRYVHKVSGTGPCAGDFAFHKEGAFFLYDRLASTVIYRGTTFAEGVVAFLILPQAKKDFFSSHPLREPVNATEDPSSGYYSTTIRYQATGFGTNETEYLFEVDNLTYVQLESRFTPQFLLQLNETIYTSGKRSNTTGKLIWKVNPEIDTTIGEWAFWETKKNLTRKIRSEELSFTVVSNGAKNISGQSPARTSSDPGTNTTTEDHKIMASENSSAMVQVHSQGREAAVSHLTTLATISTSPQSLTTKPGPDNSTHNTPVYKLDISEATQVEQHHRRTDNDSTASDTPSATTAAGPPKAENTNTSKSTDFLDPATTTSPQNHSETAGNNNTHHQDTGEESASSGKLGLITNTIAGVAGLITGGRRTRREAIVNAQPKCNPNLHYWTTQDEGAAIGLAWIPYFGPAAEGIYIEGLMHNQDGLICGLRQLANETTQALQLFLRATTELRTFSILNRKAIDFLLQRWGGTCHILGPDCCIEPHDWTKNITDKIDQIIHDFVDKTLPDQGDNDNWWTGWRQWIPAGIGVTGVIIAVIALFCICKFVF

With Oc1cc(O)c2c(c1)O[C@H](c1ccc(O)c(O)c1)[C@H](O)[C@H]2c1c(O)cc(O)c2c1O[C@H](c1ccc(O)c(O)c1)[C@H](O)C2 [Procyanidin B2 (1), procyanidin B2] the CC50 (in vitro) was greater than 86.5 µM, the “binding curve with the negative control” value [1] was “could not produce a binding curve” and the pKd (EBOV-GP) was 4.89. For the same molecule, the “Selectivity Index (SI)” value (EBOVpp) was greater than 104, the IC50 (EBOVpp; Zaire ebolavirus) was 8.29e-07 M and the pIC50 (EBOVpp; Zaire ebolavirus) was 6.08.

For CN(C)CCOc1ccc(/C(=C(/CCCl)c2ccccc2)c2ccccc2)cc1 [Toremifene, toremifene, reference compound], the CC50 (in vitro) was 2.92 µM, the “binding curve with the negative control” value [1] was “could not produce a binding curve” and the pIC50 (EBOVpp; Zaire ebolavirus) was 6.77.

For Oc1cc(O)c2c(c1)O[C@H](c1ccc(O)c(O)c1)[C@@H](O)[C@@H]2c1c(O)cc(O)c2c1O[C@H](c1ccc(O)c(O)c1)[C@@H](O)C2 [Procyanidin B3 (7), Procyanidin B3], the CC50 (in vitro) was greater than 86.5 µM, the “Selectivity Index (SI)” value (EBOVpp) was greater than 57.1 and the pIC50 (EBOVpp; Zaire ebolavirus) was 5.82.

In the case of O=C(O[C@@H]1Cc2c(O)cc(O)cc2O[C@@H]1c1cc(O)c(O)c(O)c1)c1cc(O)c(O)c(O)c1 [EGCG (8), (−)-epigallocatechin-3-O-gallate], the CC50 (in vitro) was greater than 21.8 µM, the “Selectivity Index (SI)” value (EBOVpp) was greater than 7.81 and the IC50 (EBOVpp; Zaire ebolavirus) was 2.8e-06 M. It also gave a pIC50 (EBOVpp; Zaire ebolavirus) of 5.55.

For O=C(O[C@@H]1Cc2c(O)cc(O)cc2O[C@@H]1c1ccc(O)c(O)c1)c1cc(O)c(O)c(O)c1 [ECG (9), epicatechin 3-O-gallate], the CC50 (in vitro) was greater than 22.6 µM, the “Selectivity Index (SI)” value (EBOVpp) was greater than 7.68 and the IC50 (EBOVpp; Zaire ebolavirus) was 2.95e-06 M. The pIC50 (EBOVpp; Zaire ebolavirus) was 5.53.

Molecule Oc1cc(O)c2c(c1)O[C@H](c1ccc(O)c(O)c1)[C@H](O)[C@H]2c1c(O)cc(O)c2c1O[C@H](c1ccc(O)c(O)c1)[C@H](O)[C@H]2c1c(O)cc(O)c2c1O[C@H](c1ccc(O)c(O)c1)[C@H](O)C2 [Procyanidin C1 (2), procyanidin C1] has a CC50 (in vitro) greater than 11.5 µM and a pIC50 (EBOVpp; Zaire ebolavirus) of less than 4.94.

With Oc1cc(O)c2c(c1)OC(c1ccc(O)c(O)c1)C(O)C2c1c(O)cc(O)c2c1OC(c1ccc(O)c(O)c1)C(O)C2c1c(O)cc(O)c2c1OC(c1ccc(O)c(O)c1)C(O)C2c1c(O)cc(O)c2c1OC(c1ccc(O)c(O)c1)C(O)C2 (stereo not drawn) [Procyanidin tetramer (3), epicatechin-(4β→8)-epicatechin-(4β→8)-epicatechin-(4β→8)-epicatechin] the CC50 (in vitro) was greater than 11.5 µM and the pIC50 (EBOVpp; Zaire ebolavirus) was less than 4.94.

For Oc1cc(O)c2c(c1)O[C@H](c1ccc(O)c(O)c1)[C@H](O)C2 [(−) Epicatechin (5), (−)-epicatechin], the CC50 (in vitro) was greater than 172 µM, the “Selectivity Index (SI)” value (EBOVpp) was greater than 7.79 and the IC50 (EBOVpp; Zaire ebolavirus) was 2.21e-05 M. For the same molecule, the pIC50 (EBOVpp; Zaire ebolavirus) was 4.66.

In the case of Oc1cc(O)c2c(c1)O[C@H](c1cc(O)c(O)c(O)c1)[C@H](O)C2 [Epigallocatechin (11), epigallocatechin], the CC50 (in vitro) was greater than 163 µM, the “Selectivity Index (SI)” value (EBOVpp) was greater than 29.5 and the IC50 (EBOVpp; Zaire ebolavirus) was 5.53e-06 M. It also gave a pIC50 (EBOVpp; Zaire ebolavirus) of 5.26.

With Oc1cc(O)c2c(c1)O[C@H](c1cc(O)c(O)c(O)c1)[C@@H](O)C2 [Gallocatechin (10), gallocatechin] the CC50 (in vitro) was greater than 163 µM, the “Selectivity Index (SI)” value (EBOVpp) was greater than 13.1 and the IC50 (EBOVpp; Zaire ebolavirus) was 1.24e-05 M. The pIC50 (EBOVpp; Zaire ebolavirus) was 4.91.

O=C(O[C@@H]1Cc2c(O)cc(O)cc2O[C@@H]1c1ccc(O)c(O)c1)c1ccccc1 [13b, (2R,3R)-2-(3,4-Dihydroxyphenyl)-5,7-dihydroxychroman-3-yl benzoate] showed an inhibition at 10 µM (EBOVpp; Zaire ebolavirus, A549, read-out: inhibitory effect against EBOVpp infection) greater than 60%.

With Oc1cc(O)c2c(c1)O[C@H](c1ccc(O)c(O)c1)[C@@H](O)C2 [(+) Catechin (4), (+)-catechin] the CC50 (in vitro) was greater than 34.5 µM, the IC50 (EBOVpp; Zaire ebolavirus) was 3.6e-05 M and the pIC50 (EBOVpp; Zaire ebolavirus) was 4.44.

For O=C(O)c1cc(O)c(O)c(O)c1 [gallic acid], the pIC50 [2] is given as 4.60.

With Oc1cc(O)c2c(c1)O[C@H](c1ccc(O)c(O)c1)[C@H](O)[C@H]2c1c(O)cc(O)c2c1O[C@H](c1ccc(O)c(O)c1)[C@@H](O)C2 [Procyanidin B1 (6), Procyanidin B1] the CC50 (in vitro) was greater than 86.5 µM, the “Selectivity Index (SI)” value (EBOVpp) was greater than 91.1 and the IC50 (EBOVpp; Zaire ebolavirus) was 9.13e-07 M. For the same molecule, the pIC50 (EBOVpp; Zaire ebolavirus) was 6.02.
